In PubChem BioAssay (NCI):
Values joined by “and” are separate entries in the source; they are usually repeats but may differ in a detail not shown here. Equal values may be shown once.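 How tested: cells in 96-well plates exposed to compound for 48 hours at five concentrations. GI50 = concentration required for 50% inhibition of growth. TGI: total growth inhibition.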

Columns and labels:
Experiment in all cases: growth of human tumour cells (NCI), 48 h
A498 renal = system: A498 renal
COLO 205 colon = system: COLO 205 colon
HOP-62 NSCLC = system: HOP-62 NSCLC
NCI/ADR-RES ovarian = system: NCI/ADR-RES ovarian
OVCAR-4 ovarian = system: OVCAR-4 ovarian
SF-268 CNS = system: SF-268 CNS
SF-295 CNS = system: SF-295 CNS
SK-MEL-5 melanoma = system: SK-MEL-5 melanoma
SK-OV-3 ovarian = system: SK-OV-3 ovarian
UO-31 renal = system: UO-31 renal

Row | Structure (SMILES) | TGI (A498 renal) [µM] | TGI (COLO 205 colon) | TGI (HOP-62 NSCLC) | TGI (NCI/ADR-RES ovarian) | TGI (OVCAR-4 ovarian) | TGI (SF-268 CNS) | TGI (SF-295 CNS) [µM] | TGI (SK-MEL-5 melanoma) [µM] | TGI (SK-OV-3 ovarian) | TGI (UO-31 renal) | GI50 (COLO 205 colon) [µM] | GI50 (HOP-62 NSCLC) [µM] | GI50 (NCI/ADR-RES ovarian) [µM] | GI50 (SF-295 CNS) [µM] | GI50 (UO-31 renal) [µM] | GI50 (A498 renal) [µM] | GI50 (OVCAR-4 ovarian) [µM] | GI50 (SF-268 CNS) [µM] | GI50 (SK-MEL-5 melanoma) [µM] | GI50 (SK-OV-3 ovarian) [µM]
1 | C=C1C(=O)OC2CC(C)C(C(CC(C)=O)OC(C)=O)=CCC12 (stereo not given) | 39.4 | 21.2 µM | 46.9 µM | > 45 µM | 34.2 µM | 74.5 µM | 62 | 32 | > 100 µM | 29.7 µM | – | – | – | – | – | – | – | – | – | –
2 | CN(C)CCNC(=O)c1cccc2ccc(-c3ccc(O)cc3)nc12 | 12.1 | 14.6 µM and 14.4 µM | 7.2 µM and 4.47 µM | 23.7 µM and 26.3 µM | 10.4 µM and 12.2 µM | 17.3 µM and 19.3 µM | 10.8 | 2.96 | 15.7 µM and 9.75 µM | 7.35 µM and 5.12 µM | 2.31 | 1.11 | 6.8 | 2.82 | 1.58 | – | – | – | – | –
3 | CC(C)NC(=O)OCc1c(COC(=O)NC(C)C)c(-c2cc[n+](COC(=O)C3CC3)cc2)n2c1CCC2 | > 100 | > 100 µM | > 100 µM | > 100 µM | > 100 µM | > 100 µM | > 100 | > 100 | > 100 µM | > 100 µM | – | – | – | – | – | – | – | – | – | –
4 | Cc1cc(Cl)cc(OCCn2cc(F)cn2)c1-c1nc(N)nc2c1CN(C(=O)NCC(C)(F)F)C2 | > 100 | 1.19 µM | > 100 µM | > 100 µM | > 100 µM | > 100 µM | > 93.9 | > 100 | > 100 µM | > 100 µM | 0.0395 | 0.622 | 53.1 | 0.131 | 0.682 | 0.261 | > 100 | > 55.4 | 0.179 | 0.0492
5 | CC[As](CC)SC[C@H](C)C(=O)N1CCC[C@H]1C(=O)O | 0.866 | 0.14 µM | 1.37 µM | 0.13 µM | 1.13 µM | 1 µM | 2 | 0.151 | 1.05 µM | 0.0933 µM | 0.0344 | 0.417 | 0.0152 | 0.743 | 0.024 | 0.296 | 0.334 | 0.249 | 0.054 | 0.326
6 | C/C=C(\C)C(=O)O[C@H]1C=CC(=O)O[C@H]1CCC(=O)[C@H](C)O | 56.1 | 22.6 µM | 48.2 µM | 56.1 µM | 25.4 µM | 26.1 µM | 50.8 | 27.1 | > 100 µM | 31.2 µM | 6.07 | 22.5 | 21.1 | 23.6 | 15.9 | 24.1 | 11.9 | 11.3 | 13.8 | 36.5
